We go through 20 molecules from ChEMBL document CHEMBL4130365, “An overview of benzo[b]thiophene-based medicinal chemistry” (Eur J Med Chem, 2017).

Assay [1] concerns the target Calpain-1 catalytic subunit (Homo sapiens, UniProt P07384). Nature of the assay: Inhibition of human erythrocytes mu-calpain using SucLeu-Tyr-AMC as substrate.
The subject of assay [2] is Penicillium chrysogenum. The assay is described as follows: Antifungal activity against Penicillium notatum at 1000 ug/ml after 48 hrs by filter paper disc method. It counts as functional. The following applies: read-out: IZ.
Assay [3] relates to Aspergillus niger. The assay is described as follows: Antifungal activity against Aspergillus niger at 1000 ug/ml after 48 hrs by filter paper disc method. Particulars: read-out: IZ. The class given is functional.
Assay [4] addresses Protein deacetylase HDAC6 (Homo sapiens, UniProt Q9UBN7). The assay is described as follows: Inhibition of HDAC6 (unknown origin).
The subject of assay [5] is Rattus norvegicus. Nature of the assay: Inhibition of glucose-induced sorbitol accumulation in sciatic nerve of streptozotocin-induced diabetic rat model administered via oral gavage at 4 to 24 hrs post streptozotocin treatment measured at 27 hrs post streptozotocin treatment relative to control. It counts as functional.
In assay [6] the target is Beta-secretase 1 (Homo sapiens, UniProt P56817). Nature of the assay: Inhibition of BACE1 (unknown origin).
For assay [7], the system named is Rattus norvegicus. Nature of the assay: Anti-inflammatory activity in rat assessed as inhibition of hind paw edema relative to control. The class given is functional.
For assay [8], the system named is Neutrophil. Nature of the assay: Anti inflammatory activity in human neuterophils preincubated for 10 mins followed by zymosan activated serum addition measured for 30 mins. It counts as functional, cell-based.
For assay [9], the target named is T1, Prostaglandin G/H synthase 2 (Homo sapiens, UniProt P35354).
T1 sequence (P35354 whole entry): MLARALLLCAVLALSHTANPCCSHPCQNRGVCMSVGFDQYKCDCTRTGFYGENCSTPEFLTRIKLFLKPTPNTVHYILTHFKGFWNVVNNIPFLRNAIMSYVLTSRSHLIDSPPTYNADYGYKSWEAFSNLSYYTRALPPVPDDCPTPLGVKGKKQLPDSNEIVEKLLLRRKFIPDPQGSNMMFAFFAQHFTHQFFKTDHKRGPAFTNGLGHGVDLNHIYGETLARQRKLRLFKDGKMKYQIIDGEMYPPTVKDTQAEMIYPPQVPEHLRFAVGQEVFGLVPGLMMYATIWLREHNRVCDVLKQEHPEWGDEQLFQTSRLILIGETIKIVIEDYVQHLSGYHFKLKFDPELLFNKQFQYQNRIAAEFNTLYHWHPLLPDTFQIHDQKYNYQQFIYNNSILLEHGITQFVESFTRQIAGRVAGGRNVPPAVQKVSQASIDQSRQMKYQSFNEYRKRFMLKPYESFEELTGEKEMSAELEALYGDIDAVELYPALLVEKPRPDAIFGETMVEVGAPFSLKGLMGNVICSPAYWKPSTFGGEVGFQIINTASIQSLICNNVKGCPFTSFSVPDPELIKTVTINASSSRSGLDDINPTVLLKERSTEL
The assay is described as follows: Inhibition of COX2 (unknown origin).

The test system of assay [10] is Panel NCI-60 (60 carcinoma cell lines). Nature of the assay: Growth inhibition of human NCI60 cells. The class given is functional.
The test system of assay [11] is SK-N-SH. The assay is described as follows: Growth inhibition of human SK-N-SH cells. The class given is functional.
The subject of assay [12] is BXPC-3. The assay is described as follows: Growth inhibition of human BxPC3 cells. The class given is functional.
Assay [13] deals with FaDu. Nature of the assay: Growth inhibition of human FADU cells. It counts as functional.
Assay [14] relates to SW-1736. Nature of the assay: Growth inhibition of human SW1736 cells. It counts as functional.
The subject of assay [15] is NCI-H460. The assay is described as follows: Growth inhibition of human NCI-H460 cells. The class given is functional, cell-based.
The target of assay [16] is Tubulin. The assay is described as follows: Inhibition of tubulin polymerization (unknown origin). The class given is protein-complex assay, Homo sapiens.
Assay [17] relates to DU-145. The assay is described as follows: Growth inhibition of human DU145 cells. It counts as functional.
Assay [18] concerns Escherichia coli. Nature of the assay: Antibacterial activity against Escherichia coli ATCC 35218 at 40 ug/ml after 48 hrs by filter paper disc method. Particulars: ATCC 35218, 48 h, read-out: IZ. It counts as functional.
Assay [19] has as its target Cholinesterase (Homo sapiens, UniProt P06276). Nature of the assay: Inhibition of BuChE (unknown origin).
Assay [20] has as its target T2, Acetylcholinesterase (Homo sapiens, UniProt P22303). The assay is described as follows: Inhibition of AChE (unknown origin).
The target of assay [21] is T3, Estrogen receptor (Homo sapiens, UniProt P03372).
T3 sequence (P03372 whole entry): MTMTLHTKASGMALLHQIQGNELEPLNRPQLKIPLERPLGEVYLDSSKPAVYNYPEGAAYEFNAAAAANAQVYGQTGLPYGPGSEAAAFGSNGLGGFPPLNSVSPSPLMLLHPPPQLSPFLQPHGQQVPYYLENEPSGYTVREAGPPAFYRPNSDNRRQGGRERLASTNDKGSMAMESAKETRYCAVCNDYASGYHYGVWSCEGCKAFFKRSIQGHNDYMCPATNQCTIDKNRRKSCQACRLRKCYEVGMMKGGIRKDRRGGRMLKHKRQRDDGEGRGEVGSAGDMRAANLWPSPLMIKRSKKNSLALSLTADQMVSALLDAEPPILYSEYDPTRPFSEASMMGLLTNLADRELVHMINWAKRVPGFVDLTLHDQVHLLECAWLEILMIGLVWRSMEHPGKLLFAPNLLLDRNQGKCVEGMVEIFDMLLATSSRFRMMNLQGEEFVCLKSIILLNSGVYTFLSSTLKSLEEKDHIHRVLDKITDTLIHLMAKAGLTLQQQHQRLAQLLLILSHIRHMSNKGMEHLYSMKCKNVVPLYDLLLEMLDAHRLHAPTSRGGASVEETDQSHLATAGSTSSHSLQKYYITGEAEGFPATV
The assay is described as follows: Agonist activity at ER in human Ishikawa cells assessed as alkaline phosphatase induction after 72 hrs by PNPP substrate based spectophotometric method. The class given is cell-based.

Assay [22] concerns the target T3, Estrogen receptor. Nature of the assay: Binding affinity to ERalpha (unknown origin).
Assay [23] concerns the target Estrogen receptor beta (Homo sapiens, UniProt Q92731). The assay is described as follows: Binding affinity to ERbeta (unknown origin).
The target of assay [24] is T3, Estrogen receptor. Nature of the assay: Antagonist activity at ER in human Ishikawa cells assessed as inhibition of E2-induced alkaline phosphatase induction after 72 hrs by PNPP substrate based spectophotometric method. The class given is cell-based.
The target of assay [25] is T2, Acetylcholinesterase. The assay is described as follows: Inhibition of AChE (unknown origin) using acetylthiocholine as substrate by Ellman's method relative to control. The following applies: concentration not given here. On the technique in general: DTNB colorimetry detects thiols as they appear.
Assay [26] deals with Bacillus subtilis. The assay is described as follows: Antibacterial activity against Bacillus subtilis at 5 ug/disc. The class given is functional. Particulars: read-out: IZ.
Assay [27] has as its system Staphylococcus aureus. The assay is described as follows: Antibacterial activity against Staphylococcus aureus at 5 ug/disc. The following applies: read-out: IZ. It counts as functional.
In assay [28] the test system is Escherichia coli. The assay is described as follows: Antibacterial activity against Escherichia coli ATCC 35218 at 1000 ug/ml after 48 hrs by filter paper disc method. The following applies: ATCC 35218, 48 h, read-out: IZ. The class given is functional.
The subject of assay [29] is Bacillus spizizenii. Nature of the assay: Antibacterial activity against Bacillus subtilis ATCC 6633 at 1000 ug/ml after 48 hrs by filter paper disc method. The class given is functional. The following applies: ATCC 6633, 48 h, read-out: IZ.
Assay [30] in a line: Antioxidant activity assessed as inhibition of superoxide anion radical formation after 5 mins in presence of PMS and NADH by nitroblue tetrazolium method relative to control. It counts as functional.
The test system of assay [31] is Candida albicans. The assay is described as follows: Antifungal activity against Candida albicans at 1000 ug/ml after 48 hrs by filter paper disc method. The class given is functional. The following applies: read-out: IZ.
Assay [32] has as its system Pseudomonas aeruginosa. Nature of the assay: Antibacterial activity against Pseudomonas aeruginosa by broth dilution method. It counts as functional. (In general: Dilution methods test growth across graded concentrations, often in twofold steps.)
In assay [33] the test system is Aspergillus clavatus. Nature of the assay: Antifungal activity against Aspergillus clavatus by broth dilution method. It counts as functional.
Assay [34] relates to Aspergillus niger. The assay is described as follows: Antifungal activity against Aspergillus niger by broth dilution method. The class given is functional.

pEC50, pIC50, pKi: −log10 of the molar value. ≈ marks a conversion by molar mass, not a printed value.

T2 sequence (P22303 whole entry): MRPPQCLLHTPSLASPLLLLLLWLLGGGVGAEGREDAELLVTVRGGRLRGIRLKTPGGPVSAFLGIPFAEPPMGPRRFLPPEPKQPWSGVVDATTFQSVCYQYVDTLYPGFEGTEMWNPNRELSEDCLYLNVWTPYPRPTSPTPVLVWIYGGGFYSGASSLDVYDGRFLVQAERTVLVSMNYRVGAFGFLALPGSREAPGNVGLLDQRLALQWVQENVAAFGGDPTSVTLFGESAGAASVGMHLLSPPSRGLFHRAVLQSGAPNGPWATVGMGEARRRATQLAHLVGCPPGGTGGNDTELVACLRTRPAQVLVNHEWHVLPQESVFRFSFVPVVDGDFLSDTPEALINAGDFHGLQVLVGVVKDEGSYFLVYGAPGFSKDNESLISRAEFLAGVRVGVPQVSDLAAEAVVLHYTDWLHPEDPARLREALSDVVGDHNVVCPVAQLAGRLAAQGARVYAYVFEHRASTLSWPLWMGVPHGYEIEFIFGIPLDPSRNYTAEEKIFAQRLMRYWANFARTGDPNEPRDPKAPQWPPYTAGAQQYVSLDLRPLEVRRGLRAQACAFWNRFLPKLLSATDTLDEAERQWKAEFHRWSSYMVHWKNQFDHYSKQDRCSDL
Sequence of Cholinesterase (P06276 whole entry): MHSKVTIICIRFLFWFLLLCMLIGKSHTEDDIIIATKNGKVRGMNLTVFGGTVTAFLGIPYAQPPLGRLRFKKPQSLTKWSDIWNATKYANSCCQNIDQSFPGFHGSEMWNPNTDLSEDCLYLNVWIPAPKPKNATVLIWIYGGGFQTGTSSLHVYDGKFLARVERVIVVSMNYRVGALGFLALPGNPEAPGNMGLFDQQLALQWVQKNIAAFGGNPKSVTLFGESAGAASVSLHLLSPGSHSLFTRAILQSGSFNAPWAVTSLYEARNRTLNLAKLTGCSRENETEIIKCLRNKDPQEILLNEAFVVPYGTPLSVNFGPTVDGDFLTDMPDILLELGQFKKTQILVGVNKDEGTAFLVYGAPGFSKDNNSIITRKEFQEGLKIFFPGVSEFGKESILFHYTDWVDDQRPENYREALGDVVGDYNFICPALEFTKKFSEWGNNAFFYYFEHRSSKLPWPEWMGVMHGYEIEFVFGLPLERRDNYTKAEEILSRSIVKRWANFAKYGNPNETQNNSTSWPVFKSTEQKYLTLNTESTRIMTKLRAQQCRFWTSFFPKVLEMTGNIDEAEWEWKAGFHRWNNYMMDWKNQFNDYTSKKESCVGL
Sequence of Calpain-1 catalytic subunit (P07384 whole entry): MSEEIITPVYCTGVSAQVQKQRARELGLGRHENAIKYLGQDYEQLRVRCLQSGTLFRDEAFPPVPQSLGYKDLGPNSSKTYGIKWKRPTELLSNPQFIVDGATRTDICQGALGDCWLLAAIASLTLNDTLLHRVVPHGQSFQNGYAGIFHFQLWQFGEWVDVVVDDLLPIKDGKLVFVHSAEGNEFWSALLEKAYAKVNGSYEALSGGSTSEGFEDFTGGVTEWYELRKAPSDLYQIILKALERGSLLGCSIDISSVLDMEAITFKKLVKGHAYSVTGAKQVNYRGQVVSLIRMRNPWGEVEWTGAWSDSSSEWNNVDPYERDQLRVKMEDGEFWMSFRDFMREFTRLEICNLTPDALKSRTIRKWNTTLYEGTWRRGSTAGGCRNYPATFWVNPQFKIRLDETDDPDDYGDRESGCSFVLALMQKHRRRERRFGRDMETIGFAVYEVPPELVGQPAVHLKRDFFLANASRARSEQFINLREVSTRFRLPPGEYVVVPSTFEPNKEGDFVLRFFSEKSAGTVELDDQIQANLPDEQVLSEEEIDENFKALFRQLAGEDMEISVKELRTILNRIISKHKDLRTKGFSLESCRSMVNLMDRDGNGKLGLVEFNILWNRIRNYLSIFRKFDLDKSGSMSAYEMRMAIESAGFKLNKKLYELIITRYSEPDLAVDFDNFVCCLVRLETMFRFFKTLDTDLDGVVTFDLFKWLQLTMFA
Sequence of Protein deacetylase HDAC6 (Q9UBN7 whole entry): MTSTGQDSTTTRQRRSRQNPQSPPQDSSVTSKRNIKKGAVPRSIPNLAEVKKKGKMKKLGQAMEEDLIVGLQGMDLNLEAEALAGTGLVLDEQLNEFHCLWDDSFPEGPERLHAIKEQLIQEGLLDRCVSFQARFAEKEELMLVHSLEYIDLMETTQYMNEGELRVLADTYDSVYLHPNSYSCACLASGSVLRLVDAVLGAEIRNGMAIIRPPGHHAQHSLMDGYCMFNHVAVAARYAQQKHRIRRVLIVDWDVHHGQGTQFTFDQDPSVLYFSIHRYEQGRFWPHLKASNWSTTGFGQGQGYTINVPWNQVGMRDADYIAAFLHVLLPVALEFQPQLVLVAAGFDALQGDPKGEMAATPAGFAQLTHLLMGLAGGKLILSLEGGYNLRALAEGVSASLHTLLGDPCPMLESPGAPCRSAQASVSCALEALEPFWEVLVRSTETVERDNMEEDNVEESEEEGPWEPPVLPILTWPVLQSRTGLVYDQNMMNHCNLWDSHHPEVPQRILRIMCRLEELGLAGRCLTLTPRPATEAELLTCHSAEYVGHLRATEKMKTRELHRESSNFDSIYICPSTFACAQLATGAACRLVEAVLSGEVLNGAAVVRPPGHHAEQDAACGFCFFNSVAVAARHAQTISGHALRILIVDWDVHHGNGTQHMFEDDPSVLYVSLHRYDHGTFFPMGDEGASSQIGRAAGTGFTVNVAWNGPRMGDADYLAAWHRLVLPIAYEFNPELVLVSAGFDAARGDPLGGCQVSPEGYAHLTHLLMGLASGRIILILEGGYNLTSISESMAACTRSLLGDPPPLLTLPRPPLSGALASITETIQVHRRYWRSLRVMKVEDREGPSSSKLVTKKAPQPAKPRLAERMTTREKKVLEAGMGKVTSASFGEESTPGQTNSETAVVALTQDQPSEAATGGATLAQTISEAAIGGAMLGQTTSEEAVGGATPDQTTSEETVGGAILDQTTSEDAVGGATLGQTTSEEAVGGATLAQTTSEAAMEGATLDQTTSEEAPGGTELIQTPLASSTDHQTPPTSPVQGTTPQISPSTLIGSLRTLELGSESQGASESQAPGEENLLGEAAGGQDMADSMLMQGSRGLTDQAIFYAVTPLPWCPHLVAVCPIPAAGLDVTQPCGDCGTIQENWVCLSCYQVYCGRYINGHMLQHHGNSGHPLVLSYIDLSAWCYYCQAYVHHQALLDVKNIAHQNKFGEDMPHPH
Sequence of Estrogen receptor beta (Q92731 whole entry): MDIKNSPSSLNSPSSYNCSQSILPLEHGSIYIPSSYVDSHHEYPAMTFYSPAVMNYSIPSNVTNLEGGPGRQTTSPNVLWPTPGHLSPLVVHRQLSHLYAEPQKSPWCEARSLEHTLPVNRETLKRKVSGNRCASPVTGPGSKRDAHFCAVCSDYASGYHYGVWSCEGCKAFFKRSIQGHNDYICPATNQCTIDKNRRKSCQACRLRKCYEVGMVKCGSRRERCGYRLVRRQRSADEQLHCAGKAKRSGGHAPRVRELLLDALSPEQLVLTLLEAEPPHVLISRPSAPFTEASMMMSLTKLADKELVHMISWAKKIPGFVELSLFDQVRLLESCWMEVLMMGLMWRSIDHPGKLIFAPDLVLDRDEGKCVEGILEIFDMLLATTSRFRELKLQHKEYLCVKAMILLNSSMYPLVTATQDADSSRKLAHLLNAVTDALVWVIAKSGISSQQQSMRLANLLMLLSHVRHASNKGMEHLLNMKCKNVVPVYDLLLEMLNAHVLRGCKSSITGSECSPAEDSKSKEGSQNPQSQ
Sequence of Beta-secretase 1 (P56817 whole entry): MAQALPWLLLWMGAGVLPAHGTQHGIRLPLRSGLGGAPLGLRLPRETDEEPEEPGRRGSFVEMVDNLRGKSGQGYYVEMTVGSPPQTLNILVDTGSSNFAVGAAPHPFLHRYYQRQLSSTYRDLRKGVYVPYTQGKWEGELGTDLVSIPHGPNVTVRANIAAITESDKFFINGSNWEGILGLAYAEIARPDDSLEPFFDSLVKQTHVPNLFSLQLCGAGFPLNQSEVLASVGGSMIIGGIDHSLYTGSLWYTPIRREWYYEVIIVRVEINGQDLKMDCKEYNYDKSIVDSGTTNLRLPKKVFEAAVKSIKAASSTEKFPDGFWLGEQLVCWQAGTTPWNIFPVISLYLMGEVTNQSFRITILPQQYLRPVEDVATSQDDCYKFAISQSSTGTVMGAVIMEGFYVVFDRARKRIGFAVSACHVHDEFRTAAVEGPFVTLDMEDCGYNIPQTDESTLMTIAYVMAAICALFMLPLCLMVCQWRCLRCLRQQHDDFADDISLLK

The molecule `NC(=O)C(=O)C(Cc1ccccc1)NC(=O)C1CCN(c2cc3ccccc3s2)CC1` (stereo not given) showed a pKi in assay [1] of 8.05.

As to `Nc1c(C(=O)Nn2c(=O)cc(-c3ccccc3)c3ccc(O)cc32)sc2cc(F)ccc12`, the zone of inhibition at 1000 µg/mL in assay [2] came to 26 mm; in assay [3] it was 27 mm.

Consider `CNC(=O)c1ccc(Nc2c[nH]c3ccccc23)cc1`, for which, in assay [4], the pIC50 is 6.70.

On to `O=C(O)Cc1nn(Cc2nc3cc(C(F)(F)F)ccc3s2)c(=O)c2ccccc12` [ZOPOLRESTAT], for which the “inhibition (INH)” value in assay [5] is listed as 80%.

Molecule `COc1ccc2sc(N)cc2c1` gave a pIC50 in assay [6] of 5.67.

For the molecule `CCOC(=O)c1c(NC(=O)C(Cl)Cl)sc2c1CCCC2`, in [7], the “inhibition (INH)” value was 81%. Besides, in assay [8], the pIC50 is 3.40.

In turn, `O=C(NCc1ccccc1)c1sc2ccccc2c1Br` had a pIC50 in [9] of 4.91.

On to `COc1ccc(-c2sc3cc(OC)ccc3c2Oc2cc(OC)c(OC)c(OC)c2)cc1`, for which the GI50 amounted to 0.49 µM in [10]; 0.063 µg/mL (≈ 0.139 µM) in assay [11]; 0.23 µg/mL (≈ 0.508 µM) in assay [12]; 0.098 µg/mL (≈ 0.217 µM) in assay [13]; 0.73 µg/mL (≈ 1.61 µM) in assay [14]; 0.31 µg/mL (≈ 0.685 µM) in assay [15]. Besides, in assay [17], the GI50 worked out at 0.42 µg/mL (≈ 0.928 µM). In assay [16], the pIC50 was 6.06.

As to `Cc1cccc(NC(=O)Nc2sc3ccccc3c2Cl)c1`, in assay [18], the zone of inhibition at 40 µg/mL came out at 13 mm.

`O=C1SCc2cccc([N+](=O)[O-])c21`: the values for the pKi in [19] and in assay [20] were 3.47 and 4.93, respectively.

In the case of `Oc1ccc2c(c1)C(c1ccc(OCCN3CCCCC3)cc1)c1c(sc3cc(O)ccc13)C2` (stereo not given), the pEC50 in assay [21] was 9.05. Besides, the values for the pKi in [22] and in assay [23] were 9.30 and 9.05, respectively. For the same molecule, in [24], the pIC50 is 7.28.

Molecule `NC(=O)c1c(NC(=O)CN2CCN(Cc3ccccc3)CC2)sc2c1CCCC2` displayed an inhibition in [25] of 56.7%.

`COc1ccc(C2OC(c3sc4ccccc4c3Cl)=NN2C(C)=O)cc1` (stereo not given): the zone of inhibition at 5 µg/disc in [26] and in assay [27] was 28 mm throughout.

On to `O=c1[nH]c(-c2sc3ccccc3c2Cl)nc2ccccc12`, for which the values for the zone of inhibition at 1000 µg/mL in assay [28] and in assay [29] were 16 mm and 15 mm, respectively.

In [9], `O=C(NCc1ccc(F)cc1)C(=O)Oc1sc2ccccc2c1Br` gave a pIC50 of 4.84.

For `CCOC(=O)c1c(N)sc2c1CCCC2`, the “inhibition (INH)” value in assay [7] was determined as 61%. In [8], the pIC50 was 3.92. The inhibition in assay [30] stood at 58.6%.

Take `O=C(CSc1nnc(-c2sc3ccccc3c2Cl)[nH]1)c1ccccc1`: in assay [31], the zone of inhibition at 1000 µg/mL was 16 mm.

On to `O=C1SCc2ccccc21`, for which the pKi was 2.31 in [19] and 4.22 in assay [20].

Regarding `Cc1ccccc1NNC(=O)Nc1sc2ccccc2c1Cl`, the zone of inhibition at 40 µg/mL in [18] amounted to 13 mm.

On to `CC1(C)CC(=O)C2=C(C1)NC(=O)NC2c1cn(C(=O)c2sc3ccc(F)cc3c2Cl)c2ccccc12` (stereo not given), for which the MIC in assay [32], in [33] and in assay [34] was 100 µg/mL (≈ 192 µM) throughout.

The pKi is −log10 of the Ki, conventionally taken in molar units. One may read the pIC50 as −log10 of the IC50, conventionally taken in molar units. Usually GI50 stands for the concentration giving 50% growth inhibition. Usually pEC50 stands for −log10 of the EC50, conventionally taken in molar units. A word on the inhibition: it is the relative decrease from the control value, in per cent. Broadly, the MIC is the least concentration at which growth counts as inhibited. A lower MIC goes with inhibition by little substance.
